{
  "source": "patent US7041665B2",
  "about": "“Benzoxazinone derivatives, their preparation and use as medicaments” (Laboratories del Dr. Esteve, S.A., priority 2002, dated 2006)",
  "key": {"male Wistar rats": {"system": "male Wistar rats", "assay": "Nocturnal ingestion test", "type": "in vivo, rat", "conditions": "intra-peritoneal, compared to control group", "description": "Measurement of the Intake in Animal Models\nThe animals employed were male Wistar rats (200–270 g) supplied by Harlan, S. A. The acclimatization period in our stable before being used in the experimental trials was at least 5 days. In this time the animals were stabled in groups of 5 in translucid cages, with water and food ad libitum. The animals were acclimatized to individual stabling at least 24 hours before conducting the experiment.\nThe test is carried out in the animal's cage in order to minimize the stress implied in a change of cage, which could affect the intake. Water and food are available at all times ad libitum. Immediately before turning out the lights in the room the animals are weighed and randomly assigned to a treatment group (vehicle or product under study). Immediately after the administration the rats are returned to their cages, where a known amount of food had been placed. The following morning the amount of food remaining in each cage was weighed, and the animals were again weighed.\nReferences: Ants Kask et al., Journal of Pharmacology, 414 (2001) 215–224; Andrew V. Turnbull et al., Diabetes, Vol. 51, August 2002\nEffect of Some Compounds of the Invention on Nocturnal Ingestion in Male Wistar Rats (Intra-Peritoneal Administration)"}, "Neuropeptide Y5": {"target": "T1, Neuropeptide Y5 (Rattus norvegicus, UniProt Q63634)", "T1 construct": "their brains are rapidly removed and the cortex is dissected; from tissue; host or cells: rat brain cortex membranes (male Wistar rats)", "T1 sequence (Q63634 1-445)": "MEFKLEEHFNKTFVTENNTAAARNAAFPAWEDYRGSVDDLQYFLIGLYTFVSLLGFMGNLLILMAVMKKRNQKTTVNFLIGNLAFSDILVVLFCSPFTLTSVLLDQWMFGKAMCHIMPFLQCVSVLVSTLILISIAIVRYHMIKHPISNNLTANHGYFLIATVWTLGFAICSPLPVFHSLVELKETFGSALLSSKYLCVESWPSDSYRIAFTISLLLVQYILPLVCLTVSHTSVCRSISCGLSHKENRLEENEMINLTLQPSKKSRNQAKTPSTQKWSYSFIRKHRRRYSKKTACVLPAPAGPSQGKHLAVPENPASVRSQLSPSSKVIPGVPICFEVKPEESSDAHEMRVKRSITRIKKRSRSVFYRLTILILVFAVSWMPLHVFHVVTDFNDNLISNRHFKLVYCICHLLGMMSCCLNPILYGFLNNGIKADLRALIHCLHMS", "assay": "Binding to Neuropeptide Y5, [125I]-PYY(3-36), BIBP 3226 sat., rat cortex membranes", "conditions": "radioligand [125I]-PYY3-36, 1 μM BIBP 3226 to saturate Y1, 25° C., 120 minutes", "description": "Binding to Neuropeptide Y5\n(§1) Male Wistar rats are sacrificed by decapitation, their brains are rapidly removed and the cortex is dissected. Homogenization is performed in cold conditions in the buffer: 120 mM NaCl, 4.7 mM KCl, 2.2 mM CaCl2, 1.2 mM KH2PO4, 1.2 mM MgSO4, 25 mM NaHCO3, 5.5 mM glucose, pH 7.4, by means of a Ultra-Turrax homogenizer for 15 seconds at 13,500 rpm. The ratio between fresh tissue weight and buffer volume is of twenty times. The membrane is centrifuged for 10 min at 48,000 g. The supernatant is discarded and the pellet is washed, resuspended and recentrifuged three more times. The final membrane resuspension is performed in the buffer: 120 mM NaCl, 4.7 mM KCl, 2.2 mM CaCl2, 1.2 mM KH2PO4, 1.2 mM MgSO4, 25 mM NaHCO3, 5.5 mM glucose, 0.1% BSA, 0.05% bacitracin, pH 7.4, at a ratio of 20 ml/g fresh tissue. […] Incubation volume: 500 μl. […] The filters are cold-washed three times with two milliliters of the same buffer used in homogenization. […] Non-specific binding is determined in the presence of 1 μM of pNPY (porcin Neuropeptide Y). The assays are performed in triplicate."}, "Neuropeptide Y2": {"target": "T2, Neuropeptide Y2 (Rattus norvegicus, UniProt Q9ERC0)", "T2 construct": "their brains are rapidly removed and the hypoccampus is dissected; from tissue; host or cells: rat hippocampus membranes (male Wistar rats)", "T2 sequence (Q9ERC0 1-381)": "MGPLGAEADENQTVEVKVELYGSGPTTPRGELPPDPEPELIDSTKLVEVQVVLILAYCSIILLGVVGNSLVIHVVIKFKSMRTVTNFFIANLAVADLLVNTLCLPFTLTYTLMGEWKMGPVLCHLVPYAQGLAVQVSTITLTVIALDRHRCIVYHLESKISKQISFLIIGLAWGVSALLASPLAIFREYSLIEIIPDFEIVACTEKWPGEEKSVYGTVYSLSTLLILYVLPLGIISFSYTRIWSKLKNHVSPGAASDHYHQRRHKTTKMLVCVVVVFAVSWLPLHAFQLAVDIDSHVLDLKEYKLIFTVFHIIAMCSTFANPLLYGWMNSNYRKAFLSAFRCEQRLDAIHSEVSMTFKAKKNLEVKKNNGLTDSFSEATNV", "assay": "Binding to Neuropeptide Y2, [125I]-PYY(3-36), rat hypoccampus membranes", "conditions": "radioligand [125I]-PYY3-36, 25° C., 150 minutes", "description": "Binding to Neuropeptide Y2\nas §1, with “the hypoccampus” for “the cortex”, “of ten” for “of twenty”, “recentrifuged two” for “recentrifuged three”, “times.” for “times. The final membrane resuspension is performed in the buffer: 120 mM NaCl, 4.7 mM KCl, 2.2 mM CaCl2, 1.2 mM KH2PO4, 1.2 mM MgSO4, 25 mM NaHCO3, 5.5 mM glucose, 0.1% BSA, 0.05% bacitracin, pH 7.4, at a ratio of 20 ml/g fresh tissue.”, “with three” for “with two”"}},
  "note": "Where a name gives a salt, the structure may show the parent alone.",
  "data": [
    {"compound": "1-{1-[N-(9-oxo-9H-fluoren-3-yl)aminocarbonylmethyl]-4-(piperidinyl)}-8-methyl-1,4-dihydro-2H-3,1-benzoxazin-2-one hydrochloride [Example 35]", "values": [
      {"measurement": "Effect on nocturnal ingestion: body weight of the animals", "setting": "male Wistar rats; 20 mg/kg", "result": "reduces body"},
      {"measurement": "Effect on nocturnal ingestion: food intake", "setting": "male Wistar rats; 20 mg/kg", "result": "Reduces food intake"}
    ]},
    {"compound": "O=C(CN1CCC(N2C(=O)OCc3ccccc32)CC1)Nc1ccc2c(c1)-c1ccccc1C2=O", "note": "(as salt: HCl) [Example 3, 1-{1-[N-(9-oxo-9H-fluoren-3-yl)aminocarbonylmethyl]-4-(piperidinyl)}-1,4-dihydro-2H-3,1-benzoxazin-2-one hydrochloride]", "values": [
      {"measurement": "melting point", "result": "> 275", "unit": "°C"}
    ]},
    {"compound": "O=C(CN1CCC(N2C(=O)OCc3ccccc32)CC1)Nc1ccc2c(c1)CCCC2=O", "note": "(as salt: HCl) [Example 6, 1-{1-[N-(1-oxo-1,2,3,4-tetrahydronaphthalen-6-yl)aminocarbonylmethyl]-4-(piperidinyl)}-1,4-dihydro-2H-3,1-benzoxazin-2-one hydrochloride]", "values": [
      {"measurement": "melting point", "result": "260 to 264", "unit": "°C"}
    ]},
    {"compound": "Cc1ccc2c(c1)COC(=O)N2C1CCN(CC(=O)Nc2ccc3c(c2)-c2ccccc2C3=O)CC1", "note": "(as salt: HCl) [Example 20, 1-{1-[N-(9-oxo-9H-fluoren-3-yl)aminocarbonylmethyl]-4-(piperidinyl)}-6-methyl-1,4-dihydro-2 H-3,1-benzoxazin-2-one hydrochloride]", "values": [
      {"measurement": "melting point", "result": "250 to 252", "unit": "°C"}
    ]},
    {"compound": "O=C(CN1CCC(N2C(=O)OCc3ccccc32)CC1)Nc1ccc2c(c1)-c1ccccc1C2=O", "note": "[Example 3, 1-{1-[N-(9-oxo-9H-fluoren-3-yl)aminocarbonylmethyl]-4-(piperidinyl)}-1,4-dihydro-2H-3,1-benzoxazin-2-one hydrochloride]", "values": [
      {"measurement": "Ki", "setting": "Neuropeptide Y5", "result": 6.4, "unit": "nM"}
    ]},
    {"compound": "O=C(CN1CCC(N2C(=O)OCc3ccccc32)CC1)Nc1ccc2c(c1)CCCC2=O", "note": "[Example 6, 1-{1-[N-(1-oxo-1,2,3,4-tetrahydronaphthalen-6-yl)aminocarbonylmethyl]-4-(piperidinyl)}-1,4-dihydro-2H-3,1-benzoxazin-2-one hydrochloride]", "values": [
      {"measurement": "Ki", "setting": "Neuropeptide Y2", "result": "> 1000", "unit": "nM"},
      {"measurement": "Ki", "setting": "Neuropeptide Y5", "result": 18.4, "unit": "nM"}
    ]},
    {"compound": "CCn1c2ccccc2c2cc(NC(=O)CN3CCC(N4C(=O)OCc5ccccc54)CC3)ccc21", "note": "[Example 18, 1-{1-[N-(9-ethyl-9H-carbazol-3-yl)aminocarbonylmethyl]-4-(piperidinyl)}-1,4-dihydro-2H-3,1-benzoxazin-2-one hydrochloride]", "values": [
      {"measurement": "Effect on nocturnal ingestion: body weight of the animals", "setting": "male Wistar rats; 40 mg/kg", "result": "reduces body"},
      {"measurement": "Effect on nocturnal ingestion: food intake", "setting": "male Wistar rats; 40 mg/kg", "result": "Reduces food intake"}
    ]},
    {"compound": "Cc1ccc2c(c1)COC(=O)N2C1CCN(CC(=O)Nc2ccc3c(c2)-c2ccccc2C3=O)CC1", "note": "[Example 20, 1-{1-[N-(9-oxo-9H-fluoren-3-yl)aminocarbonylmethyl]-4-(piperidinyl)}-6-methyl-1,4-dihydro-2 H-3,1-benzoxazin-2-one hydrochloride]", "values": [
      {"measurement": "Effect on nocturnal ingestion: body weight of the animals", "setting": "male Wistar rats; 40 mg/kg", "result": "reduces body"},
      {"measurement": "Effect on nocturnal ingestion: food intake", "setting": "male Wistar rats; 40 mg/kg", "result": "Reduces food intake"},
      {"measurement": "Ki", "setting": "Neuropeptide Y5", "result": 0.87, "unit": "nM"}
    ]}
  ]
}
